Experiments:
[1] = tested on: bone marrow derived macrophages (BMDM); assay: Northern blot of IL-6 and IL-12 mRNA in BMDM; type: cell-based, mice
Description: PCR were performed under the following conditions by appropriate cycling number (94° C. for 30 seconds; 65° C. for 30 seconds; and 68° C. for 30 seconds). PCR products were visualized by electrophoresis on 1.5% TAE agarose gels after being stained with ethidium bromide. BMDM isolated from either wild type or Ku 70^−/− mice were treated with ISS (10 μg/ml) or LPS (10 μg/ml) or left untreated for 6.5 hours. Total RNA was isolated and 10 μg of total RNA was separated on 1% agarose gel and then transferred onto a nylon membrane. The membrane was probed with [^32P]-labeled IL-6 or IL-12 or GAPDH cDNA followed by autoradiography, as described previously. Chu et al. (1999) Immunity 11:1.
BMDM (2.5×10^5/well) from wt, or Ku70^−/− and Ku80^−/− mice were treated with LPS (1 μg/ml), ISS-ODN (5 μg/ml) or M-ODN (5 μg/ml) for 24 hours. IL-6 (A) or IL-12 (B) levels in the supernatants were determined by ELISA. Results are means±S.D, of 5 separate experiments for wt and Ku70^−/− and 3 separate experiments for Ku80^−/− mice. (C) BMDM were incubated with LPS (10 μg/ml) or ISS-ODN (5 μg/ml) for 6.5 hours. Total RNA was isolated and analyzed for the presence of IL-6, IL-12 and GAPDH messages by a Northern blot assay, as described in Example 1. Results are means±S.D. of 5 separate experiments for wt and Ku70^−/− and 3 separate experiments for Ku80^−/− mice. […]

[2] = tested on: bone marrow derived macrophages (BMDM); assay: IL-6 and IL-12 levels in BMDM culture supernatants by ELISA; type: cell-based, mice
Description: Ku70^−/− and Ku80^−/− mice and their wild-type (wt) control on the 129 genetic background were generated by Dr. G. Li and bred at Memorial Sloan-Kettering Cancer Center (MSKCC), New York, N.Y. BMDM from wt, Ku70^−/− and Ku80^−/− mice (MSKCC) were prepared as was previously published (Martin-Orozco et al. (1999) Int. Immunol. 11:1111), and maintained in DMEM with 10% FBS, antibiotics and 20% L-cell medium and cultured for about 10 days to allow them to mature. BMDM were seeded (2.5×10^5/well in triplicate) on 96-well plates and treated with LPS (10 μg/ml), ISS-ODN (5 μg/ml) or M-ODN (5 μg/ml).
BMDM (2.5×10^5/well) from wt, or Ku70^−/− and Ku80^−/− mice were treated with LPS (1 μg/ml), ISS-ODN (5 μg/ml) or M-ODN (5 μg/ml) for 24 hours. IL-6 (A) or IL-12 (B) levels in the supernatants were determined by ELISA. Results are means±S.D, of 5 separate experiments for wt and Ku70^−/− and 3 separate experiments for Ku80^−/− mice. (C) BMDM were incubated with LPS (10 μg/ml) or ISS-ODN (5 μg/ml) for 6.5 hours. Total RNA was isolated and analyzed for the presence of IL-6, IL-12 and GAPDH messages by a Northern blot assay, as described in Example 1. Results are means±S.D. of 5 separate experiments for wt and Ku70^−/− and 3 separate experiments for Ku80^−/− mice.
DNA-PKcs^−/− and their wt control mice on the 129 genetic background were generated by Dr. G. C. Li and bred at Memorial Sloan-Kettering Cancer Center, New York, N.Y. IKKβ^−/− Tnfr1^−/− mice were generated by Drs. Z-W Li and Karin M. ATM^−/− mice on the C57BL/6 background were generated and bred by Dr. Y. Xu (UCSD) as was previously described (Xu et al.(1996) Genes Dev. 10:2411-2422) while their wild-type (wt) control were purchased from Jackson Laboratories (Bar Harbor, Me.). BMDMs from wt, DNA-PKcs^−/− mice, IKKβ^−/− Tnfr1^−/− and ATM^−/− mice were prepared as was previously published (Martin-Orozco et al. (1999) Intl. Immunol. 11:1111-1118), maintained in DMEM with 10% FBS, antibiotics and 20% L-cell medium and cultured for 7-10 days to allow them to mature. Prior to use BMDM were seeded (2.5×10^5/well in triplicate) in 96-well plates and than treated with LPS (1 μg/ml), ISS-ODN (5 μg/ml) or M-ODN (5 μg/ml), po-ISS-ODN (10 μg/ml) or po-ds-ISS-ODN (10 μg/ml), LPS-free, ultra pure bacterial DNA (E. coli, Sigma) (15 μg/ml) or methylated bacterial DNA or LPS-free, ultra pure calf thymus DNA (Sigma) (15 μg/ml). Methylation of bacterial DNA was performed by SssI methylase (Biolab, Boston, Mass.) (15 μg/ml) following manufacturer's instruction. Where indicated the PI3K inhibitor wortmannin (Wm), at various concentrations, was added to ISS-ODN or LPS stimulated BMDMs. After 24 hours in culture, the supernatants were collected and assayed for IL-6 and IL-12 levels by ELISA kits (PharMingen, San Diego, Calif.).

Substance: 5′-TGACTGTGAACGTTCGAGATGA-3′ [ISS-ODN]
- induction of IL-6 and IL-12 mRNAs ([1]; DNA-PKcs-deficient BMDM): Little induction
- induction of IL-6 and IL-12 mRNA (Northern blot) ([1]; Ku70-/- or Ku80-/- BMDM, 6.5 hours): lack of induction
- IL-6 and IL-12 induction ([2]; ATM-deficient BMDM): normal induction
- IL-6 and IL-12 induction ([2]; DNA-PKcs-deficient BMDM in comparison to wt): Very low levels
- IL-6 and IL-12 induction ([2]; IKKβ-/- Tnfr-/- BMDM): significantly reduced
- IL-6 and IL-12 secretion ([2]; Ku70-/- and Ku80-/- BMDM as compared to wt, 24 hours): very low levels

Source: patent US6893821B2, “Agents that modulate DNA-PK activity and methods of use thereof” (The Regents of the University of California, priority 2000, dated 2005)
